From patent US11719488B2, “Lyophilization process and a teverelix-TFA lyophilizate obtained thereby” (Antev Limited, priority 2018, dated 2023) come the findings set out here.

The nature of this data set: Solubility of teverelix-TFA. The format is physicochemical.

SMILES strings stand for the structures. Structures can show the parent of a compound that is named as a salt. Non-standard residues stand in square brackets, D forms with d. Residues, ends and D or L forms follow the SMILES beside them. dPhe(4-Cl) = N[C@H](Cc1ccc(Cl)cc1)C(=O)O; d2Nal = N[C@H](Cc1ccc2ccccc2c1)C(=O)O; d(hCit) = NC(=O)NCCCC[C@@H](N)C(=O)O; Lys(iPr) = CC(C)NCCCC[C@H](N)C(=O)O; d3Pal = N[C@H](Cc1cccnc1)C(=O)O

Consider `CC(=O)N[C@H](Cc1ccc2ccccc2c1)C(=O)N[C@H](Cc1ccc(Cl)cc1)C(=O)N[C@H](Cc1cccnc1)C(=O)N[C@@H](CO)C(=O)N[C@@H](Cc1ccc(O)cc1)C(=O)N[C@H](CCCCNC(N)=O)C(=O)N[C@@H](CC(C)C)C(=O)N[C@@H](CCCCNC(C)C)C(=O)N1CCC[C@H]1C(=O)N[C@H](C)C(N)=O` [Teverelix-TFA, Ac-D-Nal-D-pClPhe-D-Pal-Ser-Tyr-D-Hci-Leu-Lys(iPr)-Pro-D-Ala-NH2] (Ac-[d2Nal][dPhe(4-Cl)][d3Pal]SY[d(hCit)]L[Lys(iPr)]P[dA]-NH2), for which the solubility in water result is given as “very low solubility in water”.
